From patent US4277496A, “Methods of treating mammals suffering from inflammation and pain” (Laboratorios Bago S.A., priority 1980, dated 1981)

What was measured:
gastric epithelium = assay: Influence on the gastro-intestinal tract (ulceration, pylorus-ligated, method of Shay et al.); type: in vivo, rat (male Sprague Dawley); details: oral, dose mg/kg: phenylbutazone 75, ASA 100, XAA 120, XAA ester 196, TAA 60, TAA ester 84.5; for Increase (of ulceration evaluation): increase over control (distilled water, 3.0), 1 hour; for Evaluation (ulceration of the gastric epithelium): 1 hour after administration, score 0=no hemorrhage sites to 6=perforated ulcer, control 3.0
Description: Influence on the gastro-intestinal tract
Ten male rats of Sprague Dawley strain, weighing 200-300 g were used for each compound tested. According to the method of Shay et al. (Shay, H., Komapov, S. A., Feb. S. S., Meranir, D., Gruenstein, M., Siplet, H. Gastroenterology 5, 43, 1945), under anesthesia, the pylorus was ligated and 4 hours later test compounds were orally administered. The animal was sacrificed 1 hour after compound administration. The stomach was removed and examined for macroscopic damage. The ulceration of the gastric epithelium was evaluated by the following evaluation: 0=no hemorrhage sites; 1=some isolated hemorrhagic sites; 2=redness of the gastric epithelium; 3=1 to 5 small ulcers with a diameter smaller than 3 mm; 4=many small ulcers; 5=ulcers-greater than 3 mm; 6=perforated ulcer.

[1] = system: Carrageenin induced edema; assay: Anti-inflammatory Activity (Carrageenin induced edema test); type: in vivo, rat (male Sprague Dawley); details: for % Edema Inhibition, 1 hour / % Edema Inhibition, 3 hours / % Edema Inhibition, 5 hours: oral, 30 min before carrageenin, dose mg/kg: ASA 100, XAA 120, XAA ester 196 (eq. 120 XAA), TAA 60, TAA ester 84.5 (eq. 60 TAA); for % Edema Inhibition, 1 hour: 1 hour after carrageenin; for % Edema Inhibition, 3 hours: 3 hours after carrageenin; for % Edema Inhibition, 5 hours: 5 hours after carrageenin; for anti-inflammatory versus antinociceptive action: conclusion in words from Examples 6 and 7
Description: Anti-inflammatory Activity (Carrageenin induced edema test)
Fifteen to twenty male rats of Sprague Dawley strain weighing 150-200 g, were employed for each compound tested. 0.1 ml of 1% carrageenin saline suspension was injected into the subplantar region of the right hind-paw. The test compounds were orally administered 30 minutes prior to the injection of carrageenin and the foot volume was determined 1,3 and 5 hours after the injection of carrageenin. The percent swelling in the foot was obtained by comparing the volume before and after the injection of carrageenin, and the rate of inhibition in the treated animals was calculated.

[2] = system: response threshold on applying pressure to the tail; assay: Analgesic Activity: Tail pressure test; type: in vivo, mouse (male Rockland); details: oral; 15 and 60 min after administration; relative potency (control 0, ASA 1.00); dose mg/kg: ASA 100, XAA 50, XAA ester 74 (eq. 50 XAA), TAA 50, TAA ester 82 (eq. 50 TAA)
Description: Tail pressure test: Ten male mice of Rockland strain weighing 20-25 g were used for each compound tested. The response threshold on applying pressure to the tail was determined with an analgesy meter at 15 and 60 minutes after oral administration of the test compound. The pressure at which a struggle was elicited was read.

[3] = system: pain threshold for the inflamed feet (carrageenin); assay: Analgesic Activity: Randall-Selitto's method; type: in vivo, mouse (male Rockland); details: oral, 30 min before carrageenin; hourly for 3 hours; relative potency (control 0); dose mg/kg: ASA 100, XAA 50, XAA ester 74 (eq. 50 XAA), TAA 50, TAA ester 82 (eq. 50 TAA)
Description: Randall-Selitto's method: Ten male mice of Rockland strain weighing 25 g were used for each compound tested. 0.1 ml of 1% carrageenin saline suspension was injected into the subplantar region of the right foot. The test compounds were orally administered 30 minutes before the injection. At hourly intervals for 3 hours after the carrageenin injection, the pain threshold for the inflammed feet determining was measured the amount of pressure with an analgesy meter.

## CCCCC1C(=O)N(c2ccccc2)N(c2ccccc2)C1=O [Phenylbutazone]
Gastric epithelium
  Increase (of ulceration evaluation): 2.5
  Evaluation (ulceration of the gastric epithelium): 5.5

## CC(=O)Oc1ccccc1C(=O)O [Acetylsalicylic acid (ASA), Acetylsalicylic acid]
[1]
  % Edema Inhibition, 1 hour: 3.8%
  % Edema Inhibition, 3 hours: 24.8%
  % Edema Inhibition, 5 hours: 25.3%
[2]
  Relative strength, Tail pressure test: 1.00
[3]
  Relative strength, Randall-Selitto test: 1.05
Gastric epithelium
  Increase (of ulceration evaluation): 1.1
  Evaluation (ulceration of the gastric epithelium): 4.1

## CC(C)(C)C(=O)OCOC(=O)c1ccccc1Nc1cccc(C(F)(F)F)c1 [Pivaloyloxymethyl N(3'-trifluorotolyl)-anthranylate]
[1]
  anti-inflammatory versus antinociceptive action: act as anti-inflammatory agents more than as antinociceptive agents
  % Edema Inhibition, 1 hour: 40.4%
  % Edema Inhibition, 3 hours: 40.7%
  % Edema Inhibition, 5 hours: 32.4%
[2]
  Relative strength, Tail pressure test: 1.02
[3]
  Relative strength, Randall-Selitto test: 8.7
Gastric epithelium
  Increase (of ulceration evaluation): 0.6
  Evaluation (ulceration of the gastric epithelium): 3.6

## O=C(O)c1ccccc1Nc1cccc(C(F)(F)F)c1 [N-(3'-trifluorotolyl)-anthranylic acid]
[1]
  % Edema Inhibition, 1 hour: 24.3%
  % Edema Inhibition, 3 hours: 29.3%
  % Edema Inhibition, 5 hours: 28.3%
[2]
  Relative strength, Tail pressure test: 0.5
[3]
  Relative strength, Randall-Selitto test: 5.3
Gastric epithelium
  Increase (of ulceration evaluation): 1.9
  Evaluation (ulceration of the gastric epithelium): 4.9

## Cc1cccc(Nc2ccccc2C(=O)O)c1C [N-(2',3'-xylyl) anthranylic acid (XAA), N-(2',3'-xylyl) anthranylic acid]
[1]
  % Edema Inhibition, 1 hour: 19.32%
  % Edema Inhibition, 3 hours: 24.7%
  % Edema Inhibition, 5 hours: 23.4%
[2]
  Relative strength, Tail pressure test: 0.2
[3]
  Relative strength, Randall-Selitto test: 1.04
Gastric epithelium
  Increase (of ulceration evaluation): 1.2
  Evaluation (ulceration of the gastric epithelium): 4.2

## Cc1cccc(Nc2ccccc2C(=O)OCOC(=O)C(C)(C)C)c1C [Pivaloyloxymethyl N-(2',3'-xylyl)anthranylate]
[1]
  anti-inflammatory versus antinociceptive action: act as anti-inflammatory agents more than as antinociceptive agents
  % Edema Inhibition, 1 hour: 33.3%
  % Edema Inhibition, 3 hours: 36.4%
  % Edema Inhibition, 5 hours: 31.3%
[2]
  Relative strength, Tail pressure test: 0.48
[3]
  Relative strength, Randall-Selitto test: 1.74
Gastric epithelium
  Increase (of ulceration evaluation): 0.4
  Evaluation (ulceration of the gastric epithelium): 3.4
